Data from US20240415808A1, “Dosage Regimen for Fexuprazan Injection Composition” (Daewoong Pharmaceutical Co., Ltd., priority 2021, published 2024).

Tested on: indomethacin-induced bleeding gastric ulcer
Experiment: indomethacin-induced bleeding gastric ulcer model using male rats
Format: in vivo, rat
Conditions: 1 mg/kg single dose tail vein, mean ± SD
Procedure: In order to evaluate the efficacy of fexuprazan against bleeding gastric ulcers, an indomethacin-induced bleeding gastric ulcer model using male rats was used.
Specifically, the previously prepared 1-(5-(2,4-difluorophenyl)-1-((3-fluorophenyl)sulfonyl)-4-methoxy-1H-pyrrol-3-yl)-N-methylmethanamine (hereinafter referred to as ‘fexuprazan’) hydrochloride was dissolved in a solution containing 30 wt. % of polyethylene glycol (Polyethylene Glycol 400) polymer in physiological saline. The concentration was adjusted so that 0, 0.1, 0.5, 1, 2 mg/kg based on fexuprazan weight could be administered to each test animal in a liquid volume of 1 mL/kg, and then each test animal was administered through the tail vein as a single dose. In addition, 1 mg/kg of esomeprazole magnesium trihydrate, which is a positive control, based on esomeprazole weight was administered as a single dose through the tail vein in test animals. After 30 minutes, 80 mg/kg of indomethacin was orally administered as a single dose to each test animal to induce gastric bleeding and ulceration. An autopsy was performed 5 hours after administration of indomethacin, and the stomach was removed. Then, the ulcer index (%) was measured using an image program (Leica Application Suite V4), and gastric hemorrhage and erosion state were evaluated through histopathological examination.

`COc1ccc2nc([S@@+]([O-])Cc3ncc(C)c(OC)c3C)[nH]c2c1` [Esomeprazole, esomeprazole magnesium trihydrate, reference compound] was tested, and the “Ulcer index (%)” value (30 min before indomethacin 80 mg/kg oral, autopsy 5 h) was 6.1 ± 2.6 %, the Gastric erosion state (histopathological examination) was 2.0 ± 1.8 and the Gastric hemorrhage state (histopathological examination) was 1.3 ± 1.6^.
